# Measured values published in US6593319B1, “Fusidic acid derivatives” (Leo Pharmaceutical Products, Ltd. A/S, priority 2001, dated 2003).
# Legend:
# [1] = Stability in ethanol solution (retained activity); assay type: physicochemical; conditions: solution in ethanol stored at 0° C. for 1 month
# S. aureus ATCC2977 = test: MIC, agar diffusion method (European Pharmacopoeia 3rd Ed.); assay type: cell-based
# Experimental: (§1) The antibacterial activity of some of these compounds relative to fusidic acid appears from Table 2 showing MIC values for compounds of the invention. The method used is recommended by the European Pharmacopoeia 3rd Ed. (1997) for testing the potency of antibiotics. It is an agar diffusion method where the same volume of the tested solution is added to cavities in agar. The inhibition zones are a function of the concentration of the fusidic acid analogue used. All assays are run with fusidic acid (1) as the reference substance. The results in Table 2 differ from those of Table 1 due to the different experimental methods used.
# S. aureus Leo id. CJ232 = test: as above; assay type: cell-based; conditions: S. aureus Leo id. CJ232, MRSA
# Experimental: as §1
# [2] = system: Strep. faecium Leo id. E119(P); test: as above; assay type: cell-based; conditions: Penicillin resistant
# Experimental: as §1
# S. aureus Leoid CJ234(R) = test: as above; assay type: cell-based; conditions: MRSA and Rifampicin resistant
# Experimental: as §1
# [3] = system: Strep. faecalis ATCC10541; test: as above; assay type: cell-based
# Experimental: as §1
# [4] = system: Strep. epidermis A. ATCC12228; test: as above; assay type: cell-based
# Experimental: as §1
# S. aureus ATCC6538P = test: as above; assay type: cell-based
# Experimental: as §1
# [5] = system: Strep. sp. Gr.B Leo id. EF6; test: as above; assay type: cell-based
# Experimental: as §1
# P. acnes/1060 = test: MIC, microtitter plates, liquid medium containing broth; assay type: cell-based
# Experimental: (§2) In vitro investigations have evidenced high potency of compounds of the invention against several bacteria including staphylococci, streptococci, corynebacteriae and mycobacteriae. […] The biological tests are conducted on microtitter plates using liquid medium containing broth.
# Streptococcus - gr.B/61 = test: as above; assay type: cell-based
# Experimental: as §2
# S. aureus/ATCC 29213 = test: as above; assay type: cell-based; conditions: FusS, MSSA
# Experimental: as §2
# C. diphteria/62001 = test: as above; assay type: cell-based
# Experimental: as §2
# [6] = system: E. faecalis/V583 P. Cour.; test: as above; assay type: cell-based; conditions: VanR
# Experimental: as §2
# N. meningitidis/K1 = test: as above; assay type: cell-based
# Experimental: as §2
# Streptococcus - gr.C/68 = test: as above; assay type: cell-based
# Experimental: as §2
# Staphylococcus/291-2 = test: as above; assay type: cell-based; conditions: Staphylococcus/291-2, coagulase negative, FusS
# Experimental: as §2
# S. aureus/1 Aus-pe = test: as above; assay type: cell-based; conditions: FusS, MRSA
# Experimental: as §2
# Streptococcus - gr.G/59 = test: as above; assay type: cell-based
# Experimental: as §2
# Staphylococcus/379-2 = test: as above; assay type: cell-based; conditions: Staphylococcus/379-2, coagulase negative, FusR
# Experimental: as §2
# N. gonorrhoea/C1 = test: as above; assay type: cell-based
# Experimental: as §2
# [7] = system: Streptococcus - gr.A/67011; test: as above; assay type: cell-based
# Experimental: as §2
# S. aureus/22 DK = test: as above; assay type: cell-based; conditions: FusS, MSSA
# Experimental: as §2
# M. tuberculosis/R 498 = test: as above; assay type: cell-based
# Experimental: as §2
# S. aureus/54 USA-br = test: as above; assay type: cell-based; conditions: FusR, MSSA
# Experimental: as §2
SMILES,MIC values (concentrations in μg/ml required for 90% inhibition) (S. aureus ATCC2977),MIC values (concentrations in μg/ml required for 90% inhibition) (S. aureus Leo id. CJ232),MIC values (concentrations in μg/ml required for 90% inhibition) [2],MIC values (concentrations in μg/ml required for 90% inhibition) (S. aureus Leoid CJ234(R)),MIC values (concentrations in μg/ml required for 90% inhibition) [3],MIC values (concentrations in μg/ml required for 90% inhibition) [4],MIC values (concentrations in μg/ml required for 90% inhibition) (S. aureus ATCC6538P),MIC values (concentrations in μg/ml required for 90% inhibition) [5],other results
"CC(=O)OC1CC2(C)C(CC(O)C3C4(C)CCC(O)C(C)C4CCC32C)C1C(CCC=C(C)C)C(=O)O [Compound 101, 17(S),20(S)-Dihydrofusidic Acid]",0.001 µg/mL,0.003 µg/mL,1.2 µg/mL,0.001 µg/mL,3.7 µg/mL,0.001 µg/mL,0.002 µg/mL,3.5 µg/mL,retained initial activity [1]: > 80%; MIC values (concentrations in μg/ml required for 90% inhibition) (P. acnes/1060): 0.5 µg/mL; MIC values (concentrations in μg/ml required for 90% inhibition) (Streptococcus - gr.B/61): >64 µg/mL; MIC values (concentrations in μg/ml required for 90% inhibition) (S. aureus/ATCC 29213): 1 µg/mL; MIC values (concentrations in μg/ml required for 90% inhibition) (C. diphteria/62001): 0.063 µg/mL; MIC values (concentrations in μg/ml required for 90% inhibition) [6]: 16 µg/mL; MIC values (concentrations in μg/ml required for 90% inhibition) (N. meningitidis/K1): 1 µg/mL; MIC values (concentrations in μg/ml required for 90% inhibition) (Streptococcus - gr.C/68): 4 µg/mL; MIC values (concentrations in μg/ml required for 90% inhibition) (Staphylococcus/291-2): 1 µg/mL; MIC values (concentrations in μg/ml required for 90% inhibition) (S. aureus/1 Aus-pe): 1 µg/mL; MIC values (concentrations in μg/ml required for 90% inhibition) (Streptococcus - gr.G/59): 8 µg/mL; MIC values (concentrations in μg/ml required for 90% inhibition) (Staphylococcus/379-2): 64 µg/mL; MIC values (concentrations in μg/ml required for 90% inhibition) (N. gonorrhoea/C1): 4 µg/mL; MIC values (concentrations in μg/ml required for 90% inhibition) [7]: 64 µg/mL; MIC values (concentrations in μg/ml required for 90% inhibition) (S. aureus/22 DK): 1 µg/mL; MIC values (concentrations in μg/ml required for 90% inhibition) (M. tuberculosis/R 498): 16 µg/mL; MIC values (concentrations in μg/ml required for 90% inhibition) (S. aureus/54 USA-br): 8 µg/mL
"CC(=O)O[C@H]1C[C@@]2(C)[C@@H](C[C@@H](O)[C@H]3[C@@]4(C)CC[C@@H](O)[C@@H](C)[C@@H]4CC[C@@]32C)[C@H]1[C@H](CCCC(C)C)C(=O)O [Compound 102, 17(S),20(S),24,25-Tetrahydrofusidic Acid]",0.02 µg/mL,0.12 µg/mL,3.9 µg/mL,0.009 µg/mL,MIC>64 μg/ml,0.015 µg/mL,0.016 µg/mL,3.4 µg/mL,
"CCC(=O)OC1CC2(C)C(CC(O)C3C4(C)CCC(O)C(C)C4CCC32C)C1C(CCC=C(C)C)C(=O)O [Compound 105, 16-Deacetoxy-16β-propionyloxy-17(S),20(S)-dihydrofusidic Acid]",0.19 µg/mL,0.24 µg/mL,3.9 µg/mL,0.063 µg/mL,>64 µg/mL,0.08 µg/mL,0.22 µg/mL,>64 µg/mL,
"CC(C)=CCCC(C(=O)O)C1C(OC(=O)C2CCCCC2)CC2(C)C1CC(O)C1C3(C)CCC(O)C(C)C3CCC12C [Compound 113, 16-Deacetoxy-16β-cyclohexylcarbonyloxy-17(S),20(S)-dihydrofusidic acid]",16 µg/mL,16 µg/mL,>64 µg/mL,16 µg/mL,>64 µg/mL,>64 µg/mL,16 µg/mL,4 µg/mL,
